From US11241013B2, “Benzimidazole compounds as agricultural chemicals” (REDAG CROP PROTECTION LTD, priority 2017, dated 2022) come the findings set out here.

Where only a bound is given, the exact number is not on record here.

For one experiment, the system named is Phytophthora cactorum. The experiment is described as follows: 96 well plate test. Type of experiment: cell-based. Particulars: 96 well plate assay, agar amended to 20, 2, 0.2 and 0.02 ppm, assessed after 2 to 3 days, read-out: EC50 Phytophthora spp. (Phytophthora cactorum). Here is the method:
Compounds were screened in 96 well plates with 10 compounds per plate. Each compound was screened using agar amended to 20, 2, 0.2 and 0.02 ppm, with proline at 50 and 10 ppm and 0.2% DMSO used as controls. Each test concentration and standard was replicated twice on a plate. Compounds were screened against Phytophthora cactorum. The agar used in the test is a 1% potato dextrose agar. 1000 spores/mL agar were added to the appropriate agar. A ×10 stock solution in 2% DMSO was produced for each dose i.e. 200, 20, 2 and 0.2 ppm, and 10 μl of this added to the appropriate wells on the plate. An equivalent amount of 2% DMSO and proline stock at 500 and 100 ppm were added for the controls. To each well 90 μl of the appropriate agar spore suspension was added to give the required final well concentrations. Plates were incubated at room temperature (18° C.) and assessed after 2 to 3 days. The amount of pathogen growth in each well was compared to the DMSO controls and an EC50 concentration was calculated. The results are provided in Table 1 in which H represents no control detected at 20 ppm, G represents no control detected at 2 ppm (where the highest test concentration in the assay was 2 ppm), F represents an EC50 of ≥20 ppm, E represents an EC50 of less than 20 ppm.

The test system of another experiment is Pythium ultimum. The experiment is described as follows: Amended agar assay. In kind it is cell-based. To be noted: Globisporangium ultimum, amended PDA agar, % reduction in colony growth vs control plate, 18° C. Here is the method: Testing was carried out on potato dextrose agar (PDA) amended with each compound at a test concentration of typically 20 ppm or 2 ppm. Amended agar was poured into three replicate 9 cm petri dishes. Each replicate dish was inoculated in the centre with a 5 mm agar plug taken from the leading edge of a culture aged between 2 and 7 days old; the age of the culture was dependant on the growth rate of the pathogen being tested. The test pathogens were Pythium ultimum and Phytophthora cinnamomi. Plates were incubated at 18° C. and the diameter of each colony measured before growth on the fastest growing plate reached the plate edge. This varied between 2 and 7 days depending on the growth rate of test pathogens. The % reduction in colony growth compared to the control plate was calculated for each pathogen. The results are provided in Table 1, in which D represents no control detected at this concentration; C represents up to 50% control; B from 50 to 99% control; and A represents a control of greater than 99%, i.e. no detectable colony growth.
Alternatively, or in addition, the same assay was conducted at descending test concentrations with 5-fold dilutions typically down to 0.032 ppm though sometimes as low as 0.00026 ppm, and an EC50 (the concentration at which 50% control would be achieved) was determined. The results are provided in Table 1 in which G represents no control detected at 20 ppm, F represents an EC50 of ≥20 ppm and E represents an EC50 of less than 20 ppm.

On to `Cc1cccnc1COc1nc2ccccc2n1-c1nnnn1C` [Example 3], for which the EC50 in the experiment on Phytophthora cactorum is no less than 20 µg/mL. In the experiment on Pythium ultimum, this compound came in with an inhibition of growth at 2 ppm of 50 to 99% and an inhibition of growth at 20 ppm greater than 99%.
As to `COc1ccnc(COc2nc3ccccc3n2-c2nnnn2C)c1` [Example 4], the EC50 in the experiment on Phytophthora cactorum is less than 20 µg/mL. In the experiment on Pythium ultimum, this compound displayed an inhibition of growth at 2 ppm greater than 99% and an inhibition of growth at 20 ppm greater than 99%.
With `Cc1ccc(COc2nc3ccccc3n2-c2nnnn2C)nc1` [Example 6], in the experiment with Phytophthora cactorum, the concentration for a half-maximal effect (EC50) was no less than 20 µg/mL. In the experiment on Pythium ultimum, this compound yielded an inhibition of growth at 2 ppm greater than 99% and an inhibition of growth at 20 ppm greater than 99%.
In the case of `Cn1nnnc1-n1c(OCc2ccncn2)nc2ccccc21` [Example 7], the EC50 in the experiment on Phytophthora cactorum was less than 20 µg/mL. The compound also yielded an inhibition of growth at 2 ppm in the experiment on Pythium ultimum greater than 99%.
Consider `Clc1cncnc1-n1c(OCc2ccccn2)nc2ccccc21` [Example 8], for which, in the experiment on Phytophthora cactorum, the EC50 was no less than 20 µg/mL. Also, the inhibition of growth at 2 ppm in the experiment on Pythium ultimum was 50 to 99%.
With `COCCCOc1ccnc(COc2nc3ccccc3n2-c2ncncc2Cl)c1C` [Example 10], in the experiment on Phytophthora cactorum, the EC50 is no less than 20 µg/mL. The same compound had an inhibition of growth at 2 ppm in the experiment with Pythium ultimum of 50 to 99%.
Turning to `Cc1ccnc(COc2nc3ccccc3n2-c2nnnn2C)c1` [Example 11], the EC50 in the experiment with Phytophthora cactorum is less than 20 µg/mL. For the same compound, in the experiment with Pythium ultimum, the inhibition of growth at 2 ppm is greater than 99% and the inhibition of growth at 20 ppm was greater than 99%.
As for `COc1c(C)cnc(COc2nc3ccccc3n2-c2nnnn2C)c1C` [Example 12], the concentration giving a half-maximal response (EC50) in the experiment on Phytophthora cactorum was less than 20 µg/mL. In the experiment with Pythium ultimum, this compound gave an inhibition of growth at 2 ppm greater than 99% and an inhibition of growth at 20 ppm greater than 99%.
Take `COc1ccnc(COc2nc3ccccc3n2-c2nnnn2C)c1OC` [Example 13]: the EC50 with Phytophthora cactorum was less than 20 µg/mL. In the experiment with Pythium ultimum, this compound had an inhibition of growth at 2 ppm of 50 to 99% and an inhibition of growth at 20 ppm greater than 99%.
Consider `Cc1c(OCC(F)(F)F)ccnc1COc1nc2ccccc2n1-c1nnnn1C` [Example 14], for which, in the experiment with Phytophthora cactorum, the EC50 was less than 20 µg/mL. In the experiment with Pythium ultimum, the inhibition of growth at 2 ppm was greater than 99% and the inhibition of growth at 20 ppm is greater than 99%.
In the case of `Cn1nnnc1-n1c(OCc2nccs2)nc2ccccc21` [Example 16], the 50% effective concentration (EC50) with Phytophthora cactorum is no less than 20 µg/mL. This compound came in with an inhibition of growth at 2 ppm in the experiment with Pythium ultimum of less than 50%.
Taken in the same sequence, the figures for `Cn1nnnc1-n1c(OCc2cccc(Br)n2)nc2ccccc21` [Example 17, 2-((6-bromopyridin-2-yl)methoxy)-1-(1-methyl-1H-tetrazol-5-yl)-1H-benzo[d]imidazole] were no less than 20 µg/mL and less than 50%.
On to `COc1ccnc(COc2nc3ccccc3n2-c2ncncc2Cl)c1` [Example 22], for which the EC50 in the experiment on Phytophthora cactorum is no less than 20 µg/mL. This compound came in with an inhibition of growth at 2 ppm in the experiment on Pythium ultimum of 50 to 99%.
For `Clc1cncnc1-n1c(OCc2nccs2)nc2ccccc21` [Example 23] the same measures were no less than 20 µg/mL and 50 to 99%.
`COc1c(C)cnc(COc2nc3ccccc3n2-c2ncncc2Cl)c1C` [Example 24]: in the experiment with Phytophthora cactorum, the EC50 is less than 20 µg/mL. In the experiment with Pythium ultimum, this compound displayed an inhibition of growth at 2 ppm of 50 to 99%.
For `Cn1nnnc1-n1c(OCc2ccccn2)nc2c(Cl)cccc21` [Example 30] the same measures were less than 20 µg/mL and greater than 99%.
In the case of `Cn1nnnc1-n1c(OCc2cccc(NCc3ccccc3)n2)nc2ccccc21` [Example 35, N-Benzyl-6-(((1-(1-methyl-1H-tetrazol-5-yl)-1H-benzo[d]imidazol-2-yl)oxy)methyl)pyridin-2-amine], the concentration for a half-maximal effect (EC50) in the experiment on Phytophthora cactorum is less than 20 µg/mL. The compound also yielded an inhibition of growth at 2 ppm in the experiment on Pythium ultimum greater than 99%.
Consider `CCNc1cccc(COc2nc3ccccc3n2-c2nnnn2C)n1` [Example 36], for which the EC50 in the experiment on Phytophthora cactorum was less than 20 µg/mL. Besides, the inhibition of growth at 2 ppm with Pythium ultimum is greater than 99%.
Taken in the same sequence, the figures for `CC(C)CCNc1cccc(COc2nc3ccccc3n2-c2nnnn2C)n1` [Example 37] were less than 20 µg/mL and greater than 99%.
With `Cn1nnnc1-n1c(OCc2cccc(NCCCc3ccccc3)n2)nc2ccccc21` [Example 38], the EC50 in the experiment on Phytophthora cactorum was less than 20 µg/mL. The compound further returned an inhibition of growth at 2 ppm with Pythium ultimum greater than 99%.
As for `Cn1nnnc1-n1c(OCc2cccc(NCCc3ccccc3)n2)nc2ccccc21` [Example 39], the EC50 in the experiment with Phytophthora cactorum was less than 20 µg/mL. In the experiment with Pythium ultimum, this compound came in with an inhibition of growth at 2 ppm greater than 99%.
With `Cn1nnnc1-n1c(OCc2cccc(NCc3ccccn3)n2)nc2ccccc21` [Example 40], in the experiment on Phytophthora cactorum, the 50% effective concentration (EC50) is less than 20 µg/mL. Further, the inhibition of growth at 2 ppm with Pythium ultimum was greater than 99%.
Consider `CCCNc1cccc(COc2nc3ccccc3n2-c2nnnn2C)n1` [Example 42], for which the EC50 with Phytophthora cactorum was less than 20 µg/mL. This compound registered an inhibition of growth at 2 ppm with Pythium ultimum greater than 99%.
As for `CCCCNc1cccc(COc2nc3ccccc3n2-c2nnnn2C)n1` [Example 43], the EC50 in the experiment on Phytophthora cactorum was less than 20 µg/mL. In the experiment with Pythium ultimum, the inhibition of growth at 2 ppm was greater than 99%.
`Cn1nnnc1-n1c(OCc2cccc(NCc3ccco3)n2)nc2ccccc21` [Example 44]: in the experiment with Phytophthora cactorum, the EC50 is less than 20 µg/mL. Also, the inhibition of growth at 2 ppm in the experiment on Pythium ultimum is greater than 99%.
Turning to `Cn1ccc(CNc2cccc(COc3nc4ccccc4n3-c3nnnn3C)n2)n1` [Example 45], the concentration for a half-maximal effect (EC50) with Phytophthora cactorum was less than 20 µg/mL. Further, the inhibition of growth at 2 ppm in the experiment with Pythium ultimum is greater than 99%.
For `Cn1nnnc1-n1c(OCc2cccc(NCC3CC3)n2)nc2ccccc21` [Example 47] the same measures were less than 20 µg/mL and greater than 99%.
As for `CNc1cccc(COc2nc3ccccc3n2-c2nnnn2C)n1` [Example 48, N-Methyl-6-(((1-(1-methyl-1H-tetrazol-5-yl)-1H-benzo[d]imidazol-2-yl)oxy)methyl)pyridin-2-amine], the 50% effective concentration (EC50) in the experiment with Phytophthora cactorum was less than 20 µg/mL. The inhibition of growth at 2 ppm in the experiment on Pythium ultimum is greater than 99%.
Regarding `CC(C)Nc1cccc(COc2nc3ccccc3n2-c2nnnn2C)n1` [Example 50, N-Isopropyl-6-(((1-(1-methyl-1H-tetrazol-5-yl)-1H-benzo[d]imidazol-2-yl)oxy)methyl)pyridin-2-amine], the EC50 with Phytophthora cactorum is less than 20 µg/mL. The compound further yielded an inhibition of growth at 2 ppm with Pythium ultimum greater than 99%.
On to `CC(C)CCCNc1cccc(COc2nc3ccccc3n2-c2nnnn2C)n1` [Example 51], for which the EC50 with Phytophthora cactorum is less than 20 µg/mL. Besides, the inhibition of growth at 2 ppm in the experiment with Pythium ultimum was greater than 99%.
Taken in the same sequence, the figures for `CSc1ccnc(COc2nc3ccccc3n2-c2nnnn2C)c1` [Example 55] were less than 20 µg/mL and greater than 99%.
On to `COc1ccc(COc2nc3ccccc3n2-c2nnnn2C)nc1` [Example 56], for which the EC50 in the experiment on Phytophthora cactorum is no less than 20 µg/mL. Also, the inhibition of growth at 2 ppm in the experiment with Pythium ultimum was less than 50%.
With `Cn1nnnc1-n1c(OCc2cccc(N)n2)nc2c(Cl)cccc21` [Example 59], the EC50 with Phytophthora cactorum is less than 20 µg/mL. Besides, the inhibition of growth at 2 ppm with Pythium ultimum was greater than 99%.
Turning to `Cc1c(OC(F)(F)C(F)(F)F)ccnc1COc1nc2c(Cl)cccc2n1-c1nnnn1C` [Example 60], the EC50 with Phytophthora cactorum was less than 20 µg/mL. The inhibition of growth at 2 ppm in the experiment on Pythium ultimum was greater than 99%.
Consider `COc1ccnc(COc2nc3c(Cl)cccc3n2-c2nnnn2C)c1` [Example 61], for which the concentration giving a half-maximal response (EC50) with Phytophthora cactorum is less than 20 µg/mL. The inhibition of growth at 2 ppm in the experiment with Pythium ultimum was greater than 99%.
Regarding `COCCCOc1ccnc(COc2nc3c(Cl)cccc3n2-c2nnnn2C)c1C` [Example 62], the EC50 in the experiment with Phytophthora cactorum is less than 20 µg/mL. In the experiment with Pythium ultimum, this compound had an inhibition of growth at 2 ppm greater than 99%.
On to `CC(C)CCCNc1cccc(COc2nc3c(Cl)cccc3n2-c2nnnn2C)n1` [Example 63], for which, in the experiment with Phytophthora cactorum, the EC50 is less than 20 µg/mL. For the same compound, the inhibition of growth at 2 ppm in the experiment with Pythium ultimum was greater than 99%.
For `Cn1nnnc1-n1c(OCc2nc3ccccc3n2C)nc2ccccc21` [Example 64], the EC50 in the experiment with Phytophthora cactorum was less than 20 µg/mL. In the experiment with Pythium ultimum, this compound gave an inhibition of growth at 2 ppm greater than 99%.
For `Cn1nnnc1-n1c(OCc2ccc3ccccc3n2)nc2ccccc21` [Example 65] the same measures were no less than 20 µg/mL and 50 to 99%.
Regarding `Cn1nnnc1-n1c(OCc2nc3ccccc3n2C)nc2c(Cl)cccc21` [Example 66], the EC50 in the experiment with Phytophthora cactorum was less than 20 µg/mL. The compound further yielded an inhibition of growth at 2 ppm with Pythium ultimum greater than 99%.
Taken in the same sequence, the figures for `Cn1nnnc1-n1c(OCc2cc([N+](=O)[O-])ccn2)nc2c(Cl)cccc21` [Example 69] were no less than 20 µg/mL and 50 to 99%.
`Cn1nnnc1-n1c(OCc2nc3ccccc3s2)nc2c(Cl)cccc21` [Example 70]: the EC50 in the experiment on Phytophthora cactorum was less than 20 µg/mL. In the experiment with Pythium ultimum, this compound yielded an inhibition of growth at 2 ppm greater than 99%.

In general, EC50 refers to the concentration at which the effect is half-maximal. For orientation: inhibition of growth means the percentage by which the read-out fell short of the control.
